Measured values published in ChEMBL document CHEMBL5143672, “New diarylpentanoids and chalcones as potential antimicrobial adjuvants” (2022).

Tests used:
Candida albicans = assay: Antifungal activity against Candidia albicans ATCC 10231 assessed as inhibition of fungal growth by broth microdilution method; type: functional
Enterococcus faecalis [1] = assay: Antibacterial activity against Enterococcus faecalis ATCC 29212 assessed as inhibition of bacterial growth by broth microdilution method; type: functional
Staphylococcus aureus [2] = assay: Antibacterial activity against Staphylococcus aureus ATCC 25923 assessed as inhibition of bacterial growth by broth microdilution method; type: functional
Pseudomonas aeruginosa = assay: Antibacterial activity against Pseudomonas aeruginosa ATCC 27853 assessed as inhibition of bacterial growth by broth microdilution method; type: functional
Trichophyton rubrum = assay: Antifungal activity against Trichophyton rubrum FF5 assessed as inhibition of fungal growth by broth microdilution method; type: functional
Salmonella typhimurium = assay: Antibacterial activity against Salmonella enterica serovar typhimurium SL1344 (SE03) assessed as inhibition of bacterial growth by broth microdilution method; type: functional, Salmonella enterica subsp. enterica serovar Typhimurium
Escherichia coli [3] = assay: Antibacterial activity against Escherichia coli ATCC 25922 assessed as inhibition of bacterial growth by broth microdilution method; type: functional
Aspergillus fumigatus = assay: Antifungal activity against Aspergillus fumigatus ATCC 204305 assessed as inhibition of fungal growth by broth microdilution method; type: functional
[4] = Inhibition of Multidrug resistance efflux pump in Staphylococcus aureus 272123 assessed as relative fluorescence index using ethidium bromide as substrate at 50 uM by fluorescence based analysis
[5] = test system: Salmonella enterica subsp. enterica serovar Typhimurium; assay: Inhibition of Multidrug resistance efflux pump in Salmonella enterica serovar typhimurium SL1344 (SE03) assessed as relative fluorescence index using ethidium bromide as substrate at 50 uM by fluorescence based analysis
Enterococcus faecalis [6] = assay: Antimicrobial adjuvant activity against Enterococcus faecalis B3/101 assessed as potentiation of vancomycin-induced antibacterial activity by measuring fold reduction in vancomycin MIC at 64 ug/ml by broth microdilution method; type: functional; settings: dose 64 µg/ml
Staphylococcus aureus [7] = assay: Antibacterial activity against methicillin and ofloxacin-resistant Staphylococcus aureus 272123 assessed as inhibition of bacterial growth by broth microdilution method; type: functional
Escherichia coli [8] = assay: Antimicrobial adjuvant activity against ESBL-producing Escherichia coli SA/2 assessed as potentiation of cefotaxime-induced antibacterial activity by measuring fold reduction in cefotaxime MIC at 64 ug/ml by broth microdilution method; type: functional; settings: dose 64 µg/ml

Structure (SMILES) | MIC (Candida albicans) [µg/mL] | MIC (Enterococcus faecalis [1]) [µg/mL] | MIC (Staphylococcus aureus [2]) [µg/mL] | MIC (Pseudomonas aeruginosa) [µg/mL] | MIC (Trichophyton rubrum) [µg/mL] | MIC (Salmonella typhimurium) [µg/mL] | MIC (Escherichia coli [3]) [µg/mL] | MIC (Aspergillus fumigatus) [µg/mL] | RFU [4] | RFU [5] | fold change (FC) (Enterococcus faecalis [6]) | MIC (Staphylococcus aureus [7]) [µg/mL] | fold change (FC) (Escherichia coli [8])
COc1cc(/C=C2\COC/C(=C\c3cc(OC)cc(OC)c3)C2=O)cc(OC)c1 | > 128 | > 64 | > 64 | > 64 | > 128 | > 64 | > 64 | > 128 | 0.25 | 0.09 | 4 | > 64 | 
O=C1/C(=C/c2ccccc2Cl)COC/C1=C\c1ccccc1Cl | > 128 | > 64 | > 64 | > 64 | > 128 | > 64 | > 64 | > 128 | -0.16 | -0.08 |  | > 64 | 2
COc1ccccc1/C=C1\CC/C(=C\c2ccccc2OC)C1=O | > 128 | > 64 | > 64 | > 64 | > 128 | > 64 | > 64 | > 128 | -0.39 | 0.15 | 2 | > 64 | 
COc1ccccc1/C=C1\COC/C(=C\c2ccccc2OC)C1=O | > 128 | > 64 | > 64 | > 64 | > 128 | > 64 | > 64 | > 128 | 0.21 | 0.16 |  | > 64 | 2
O=C1/C(=C/c2ccc(Cl)cc2Cl)COC/C1=C\c1ccc(Cl)cc1Cl | > 128 | > 64 | > 64 | > 64 | > 128 | > 64 | > 64 | > 128 | -0.25 | -0.13 |  | > 64 | 2
COc1cc(OC)c(OC)cc1/C=C1\Cc2ccccc2C1=O | > 128 | > 64 | > 64 | > 64 | > 128 | > 64 | > 64 | > 128 | -0.34 | 0.11 | 2 | > 64 | 2
COc1ccccc1/C=C1\CSC/C(=C\c2ccccc2OC)C1=O | > 128 | > 64 | > 64 | > 64 | > 128 | > 64 | > 64 | > 128 | 0.01 | 0.01 | 4 | > 64 | 
COc1cc(/C=C2\COC/C(=C\c3cc(OC)c(OC)c(OC)c3)C2=O)cc(OC)c1OC | > 128 | > 64 | > 64 | > 64 | > 128 | > 64 | > 64 | > 128 | 0.02 | -0.05 |  | > 64 | 2
O=C1/C(=C/c2ccccc2F)COC/C1=C\c1ccccc1F | > 128 | > 64 | > 64 | > 64 | > 128 | > 64 | > 64 | > 128 | -0.08 | -0.04 |  | > 64 | 2
COc1cccc(/C=C2\COC/C(=C\c3cccc(OC)c3)C2=O)c1 | > 128 | > 64 | > 64 | > 64 | > 128 | > 64 | > 64 | > 128 | 0.17 | 0.05 | 4 | > 64 | 
